Measurements published in ChEMBL document CHEMBL5052856, “Inhibitors of apol1 and methods of using same” (2021).

Experiments:
[1] = molecular target: Apolipoprotein L1 (Homo sapiens, UniProt O14791); assay: Inhibition of APOL1 G1 variant in human HEK293-T-REx cells measured by Thallium assay; format: cell-based
[2] = system: Trypanosoma brucei brucei; assay: Antitrypanosomal activity against Trypanosoma brucei brucei assessed as trypanosome lysis using recombinant APOL1 protein G1 variant and measured by Alamar blue based fluoresence assay; format: functional, organism-based

Row | Compound | IC50 [1] [nM] | IC50 [2] [nM]
1 | O=C1NCCCC1NC(=O)[C@H]1C[C@H](c2c(-c3ccc(F)cc3)[nH]c3c(F)cc(F)cc32)C1 (stereo not given in full) | 0.25 | 250
2 | CN1CC(CNC(=O)[C@H]2C[C@H](c3c(-c4ccc(F)cc4)[nH]c4c(F)cc(F)cc43)C2)CC1=O (stereo not given in full) | > 1000 | > 1000
3 | O=C([C@H]1C[C@H](c2c(-c3ccc(F)cc3)[nH]c3c(F)cc(F)cc32)C1)N1CC(CO)C1 | > 1000 | < 250
4 | COC1CC1NC(=O)[C@H]1C[C@H](c2c(-c3ccc(F)cc3)[nH]c3c(F)cc(F)cc32)C1 (stereo not given in full) | > 1000 | > 1000
5 | O=C([C@H]1C[C@H](c2c(-c3ccc(F)cc3)[nH]c3c(F)cc(F)cc32)C1)N1C[C@@H](O)[C@H](O)C1 | > 1000 | 250
6 | O=C([C@H]1C[C@H](c2c(-c3ccc(F)cc3)[nH]c3c(F)cc(F)cc32)C1)N(CCO)CCCO | > 1000 | 250
7 | Cc1cnc(NC(=O)[C@H]2C[C@H](c3c(-c4ccc(F)cc4)[nH]c4c(F)cc(F)cc43)C2)o1 | ≥ 250 | < 250
8 | CC(C)(CO)NC(=O)[C@H]1C[C@H](c2c(-c3ccc(F)cc3)[nH]c3c(F)cc(F)cc32)C1 | < 250 | 250
9 | CCOCC1(CNC(=O)[C@H]2C[C@H](c3c(-c4ccc(F)cc4)[nH]c4c(F)cc(F)cc43)C2)CC1 | > 1000 | > 1000
10 | O=C(N[C@@H]1CCOC1)[C@H]1C[C@H](c2c(-c3ccc(F)cc3)[nH]c3c(F)cc(F)cc32)C1 | 0.25 | 250
11 | O=C(NC(CO)CO)[C@H]1C[C@H](c2c(-c3ccc(F)cc3)[nH]c3c(F)cc(F)cc32)C1 | < 250 | < 250
12 | NC(=O)[C@H]1C[C@H](c2c(-c3ccc(F)cc3)[nH]c3c(F)cc(F)cc32)C1 | 0.25 | < 250
13 | NC(=O)CNC[C@H]1C[C@H](c2c(-c3ccc(F)cc3)[nH]c3c(F)cc(F)cc32)C1 | < 250 | < 250
14 | CN(C)C(=O)CN(C)C(=O)[C@H]1C[C@H](c2c(-c3ccc(F)cc3)[nH]c3c(F)cc(F)cc32)C1 | 0.25 | > 1000
15 | CN(CC(O)CO)C(=O)[C@H]1C[C@H](c2c(-c3ccc(F)cc3)[nH]c3c(F)cc(F)cc32)C1 (stereo not given in full) | > 1000 | 250
16 | CC1(C)CN(C(=O)[C@H]2C[C@H](c3c(-c4ccc(F)cc4)[nH]c4c(F)cc(F)cc43)C2)CC1O (stereo not given in full) | > 1000 | > 1000
17 | CC1(NC(=O)[C@H]2C[C@H](c3c(-c4ccc(F)cc4)[nH]c4c(F)cc(F)cc43)C2)CCNC1=O (stereo not given in full) | 0.25 | < 250
18 | O=C1OCC[C@@H]1NC(=O)[C@H]1C[C@H](c2c(-c3ccc(F)cc3)[nH]c3c(F)cc(F)cc32)C1 | 0.25 | 250
19 | O=C([C@H]1C[C@H](c2c(-c3ccc(F)cc3)[nH]c3c(F)cc(F)cc32)C1)N1CCC[C@@H](O)C1 (mixture of isomers) | 0.25 | < 250
20 | O=C([C@H]1C[C@H](c2c(-c3ccc(F)cc3)[nH]c3c(F)cc(F)cc32)C1)N(CCO)c1cnccn1 | > 1000 | > 1000
21 | CO[C@H]1CCN(C(=O)[C@H]2C[C@H](c3c(-c4ccc(F)cc4)[nH]c4c(F)cc(F)cc43)C2)C1 | > 1000 | > 1000
22 | O=C(N[C@H]1CC[C@H](O)C1)[C@H]1C[C@H](c2c(-c3ccc(F)cc3)[nH]c3c(F)cc(F)cc32)C1 | > 1000 | > 1000

Row | Compound | IC50 [1] [nM] | IC50 [2] [nM]
23 | O=C([C@H]1C[C@H](c2c(-c3ccc(F)cc3)[nH]c3c(F)cc(F)cc32)C1)N1CC[C@@H]1CO | < 250 | < 250
24 | O=C(NCCn1cnnc1)[C@H]1C[C@H](c2c(-c3ccc(F)cc3)[nH]c3c(F)cc(F)cc32)C1 | > 1000 | > 1000
25 | CC(C)(O)C(O)CNC(=O)[C@H]1C[C@H](c2c(-c3ccc(F)cc3)[nH]c3c(F)cc(F)cc32)C1 (stereo not given in full) | > 1000 | 250
26 | O=C1CCC(NC(=O)[C@H]2C[C@H](c3c(-c4ccc(F)cc4)[nH]c4c(F)cc(F)cc43)C2)C1 (stereo not given in full) | > 1000 | > 1000
27 | CN(C(=O)[C@H]1C[C@H](c2c(-c3ccc(F)cc3)[nH]c3c(F)cc(F)cc32)C1)C1COCC1O (stereo not given in full) | > 1000 | > 1000
28 | O=C([C@H]1C[C@H](c2c(-c3ccc(F)cc3)[nH]c3c(F)cc(F)cc32)C1)N1CC2(CC(O)C2)C1 | > 1000 | > 1000
29 | NC(=O)C1CCN(C(=O)[C@H]2C[C@H](c3c(-c4ccc(F)cc4)[nH]c4c(F)cc(F)cc43)C2)CC1 | > 1000 | > 1000
30 | NC(=O)C(CO)NC(=O)[C@H]1C[C@H](c2c(-c3ccc(F)cc3)[nH]c3c(F)cc(F)cc32)C1 (stereo not given in full) | < 250 | < 250
31 | O=C(NCC1(O)CCC1)[C@H]1C[C@H](c2c(-c3ccc(F)cc3)[nH]c3c(F)cc(F)cc32)C1 | > 1000 | > 1000
32 | O=C(CNC(=O)[C@H]1C[C@H](c2c(-c3ccc(F)cc3)[nH]c3c(F)cc(F)cc32)C1)NC1CC1 | > 1000 | > 1000
33 | O=C1CN(C(=O)[C@H]2C[C@H](c3c(-c4ccc(F)cc4)[nH]c4c(F)cc(F)cc43)C2)CCN1 | > 1000 | > 1000
34 | CC1(C)CN(C(=O)[C@H]2C[C@H](c3c(-c4ccc(F)cc4)[nH]c4c(F)cc(F)cc43)C2)CCC1O (stereo not given in full) | > 1000 | > 1000
35 | O=C([C@H]1C[C@H](c2c(-c3ccc(F)cc3)[nH]c3c(F)cc(F)cc32)C1)N1CC(O)C(N2CCOCC2)C1 (stereo not given in full) | > 1000 | > 1000
36 | CN(CC1(CO)CCOCC1)C(=O)[C@H]1C[C@H](c2c(-c3ccc(F)cc3)[nH]c3c(F)cc(F)cc32)C1 | > 1000 | > 1000
37 | Cc1cc(CNC(=O)[C@H]2C[C@H](c3c(-c4ccc(F)cc4)[nH]c4c(F)cc(F)cc43)C2)nn1C | > 1000 | 250
38 | O=C([C@H]1C[C@H](c2c(-c3ccc(F)cc3)[nH]c3c(F)cc(F)cc32)C1)N1CCC[C@H]1CO | > 1000 | 250
39 | O=C([C@H]1C[C@H](c2c(-c3ccc(F)cc3)[nH]c3c(F)cc(F)cc32)C1)N1CCN(CCO)CC1 | > 1000 | > 1000
40 | O=C([C@H]1C[C@H](c2c(-c3ccc(F)cc3)[nH]c3c(F)cc(F)cc32)C1)N1CCCC[C@@H]1CO | > 1000 | 250
41 | CS(=O)(=O)CCNC(=O)[C@H]1C[C@H](c2c(-c3ccc(F)cc3)[nH]c3c(F)cc(F)cc32)C1 | < 250 | > 1000
42 | C[C@@H](O)CNC(=O)[C@H]1C[C@H](c2c(-c3ccc(F)cc3)[nH]c3c(F)cc(F)cc32)C1 | 0.25 | 250
43 | O=C(NCCCO)[C@H]1C[C@H](c2c(-c3ccc(F)cc3)[nH]c3c(F)cc(F)cc32)C1 | 0.25 | < 250
44 | NC(=O)CNC(=O)[C@H]1C[C@H](c2c(-c3ccc(F)cc3)[nH]c3c(F)cc(F)cc32)C1 | < 250 | < 250

Row | Compound | IC50 [1] [nM] | IC50 [2] [nM]
45 | O=C(N[C@H]1C[C@H](O)C1)[C@H]1C[C@H](c2c(-c3ccc(F)cc3)[nH]c3c(F)cc(F)cc32)C1 | > 1000 | 250
46 | CC(C)C(CO)NC(=O)[C@H]1C[C@H](c2c(-c3ccc(F)cc3)[nH]c3c(F)cc(F)cc32)C1 (stereo not given in full) | > 1000 | 250
47 | N#CC(CO)NC(=O)[C@H]1C[C@H](c2c(-c3ccc(F)cc3)[nH]c3c(F)cc(F)cc32)C1 (stereo not given in full) | < 250 | < 250
48 | CC(CO)N(C)C(=O)[C@H]1C[C@H](c2c(-c3ccc(F)cc3)[nH]c3c(F)cc(F)cc32)C1 (stereo not given in full) | < 250 | 250
49 | O=C([C@H]1C[C@H](c2c(-c3ccc(F)cc3)[nH]c3c(F)cc(F)cc32)C1)N1CCC(O)(O)CC1 | > 1000 | 250
50 | CC(N)(C(=O)NC(=O)[C@H]1C[C@H](c2c(-c3ccc(F)cc3)[nH]c3c(F)cc(F)cc32)C1)C(F)(F)F (stereo not given in full) | > 1000 | 250
51 | CC1CC(NC(=O)[C@H]2C[C@H](c3c(-c4ccc(F)cc4)[nH]c4c(F)cc(F)cc43)C2)C(=O)N1 (stereo not given in full) | > 1000 | 250
52 | CCNC(=O)[C@@H]1CCCN1C(=O)[C@H]1C[C@H](c2c(-c3ccc(F)cc3)[nH]c3c(F)cc(F)cc32)C1 | > 1000 | > 1000
53 | O=C([C@H]1C[C@H](c2c(-c3ccc(F)cc3)[nH]c3c(F)cc(F)cc32)C1)N1CCOC[C@H]1CO | > 1000 | 250
54 | CN(CC(N)=O)C(=O)[C@H]1C[C@H](c2c(-c3ccc(F)cc3)[nH]c3c(F)cc(F)cc32)C1 | 0.25 | 250
55 | O=C1C[C@H](NC(=O)[C@H]2C[C@H](c3c(-c4ccc(F)cc4)[nH]c4c(F)cc(F)cc43)C2)C(=O)N1 | < 250 | < 250
56 | O=C(N[C@H]1CC[C@H]1O)[C@H]1C[C@H](c2c(-c3ccc(F)cc3)[nH]c3c(F)cc(F)cc32)C1 | 0.25 | 250
57 | O=C([C@H]1C[C@H](c2c(-c3ccc(F)cc3)[nH]c3c(F)cc(F)cc32)C1)N(CCO)C1CC1 | < 250 | 250
58 | O=C(N[C@H](CO)C(F)(F)F)[C@H]1C[C@H](c2c(-c3ccc(F)cc3)[nH]c3c(F)cc(F)cc32)C1 | 0.25 | < 250
59 | CC(C)(NC(=O)[C@H]1C[C@H](c2c(-c3ccc(F)cc3)[nH]c3c(F)cc(F)cc32)C1)C(=O)N1CCOCC1 | > 1000 | > 1000
60 | O=C([C@H]1C[C@H](c2c(-c3ccc(F)cc3)[nH]c3c(F)cc(F)cc32)C1)N1CCOC(O)C1 (stereo not given in full) | 0.25 | < 250
61 | O=C1CC[C@@H](NC(=O)[C@H]2C[C@H](c3c(-c4ccc(F)cc4)[nH]c4c(F)cc(F)cc43)C2)C1 | > 1000 | > 1000
62 | O=C(NC(CO)CF)[C@H]1C[C@H](c2c(-c3ccc(F)cc3)[nH]c3c(F)cc(F)cc32)C1 (stereo not given in full) | < 250 | < 250
63 | CC(O)(CO)CNC(=O)[C@H]1C[C@H](c2c(-c3ccc(F)cc3)[nH]c3c(F)cc(F)cc32)C1 (stereo not given in full) | > 1000 | > 1000
64 | CCC(CO)NC(=O)[C@H]1C[C@H](c2c(-c3ccc(F)cc3)[nH]c3c(F)cc(F)cc32)C1 (stereo not given in full) | < 250 | 250
65 | O=C([C@H]1C[C@H](c2c(-c3ccc(F)cc3)[nH]c3c(F)cc(F)cc32)C1)N1CCC2(COC2)C1 | > 1000 | > 1000
